Data as given in US12024716B2, “Compositions and methods of expansion of T cell populations” (THE BOARD OF TRUSTEES OF THE LELAND STANFORD JUNIOR …, priority 2018, dated 2024).
Read-outs that look alike come from different tables or passages of the source.

What was measured:
[1] = tested on: pRPS6; settings: gated on CFSE+CD8+ T cells
Description: (§1) Mass cytometry data were normalized and debarcoded.

[2] = tested on: human naïve CFSE+ CD8+ T cells; assay: Naïve CD8+ T-cell differentiation in REP: skewing between TSCM-like and dysfunctional phenotype (mass cytometry, force-directed graph, DPT); settings: for CD45RA^Low CD25^High (%) / CD45RA^High CD25^Low (%): gated on CFSE^+CD8^+T cells; for CD45RA^Low CD25^High (%): path toward dysfunctional phenotype; for CD45RA^High CD25^Low (%): path towards TSCM-like phenotype; for CD45RA High CD25 Low (%) / CD45RA Low CD25 High (%): gated on CFSE+CD8+ T cells
[3] = tested on: human naïve CFSE+ CD8+ T cells
Description: Peripheral blood mononuclear cells (PBMCs) were isolated from Trima Accel leukocyte reduction system (LRS) chambers (Terumo BCT, Lakewood, CO) of de-identified healthy blood donors (Stanford Blood Center, Palo Alto, CA) using Ficoll-Paque Plus (GE Healthcare, Chicago, IL, USA) density gradient centrifugation according to manufacturer's instructions. For long-term storage, PBMCs were resuspended in FBS with 10% DMSO and stored in liquid nitrogen at density 1-5×10^7 cells/mL. Cryopreserved PBMCs were thawed into cell culture medium (CCM; RPMI 1640 containing 10% FBS, 1× L-glutamine, and 1× penicillin/streptomycin; Thermo Fisher Scientific Waltham, MA, USA) supplemented with 25 U/mL benzonase (SIGMA-ALDRICH®, St. Louis, MO, USA). Cells were then pelleted for 5 minutes at 250×g, resuspended in 10 mL CCM, rested at 37° C., 5% CO2 for 60 minutes, filtered through a 40 μm strainer, and counted. Where indicated, naïve T cells were enriched using Naïve Pan T Cell Isolation Kit (Miltenyi Biotec #130-097-095, Bergisch Gladbach, Germany) according to manufacturer's instructions.
Unless otherwise noted, carboxyfluorescein succinimidyl ester (CFSE) labeling was performed as described by Quah and Parish16, 17. Briefly, 50 μg carboxyfluorescein diacetate succinimidyl ester (CFDA-SE) was reconstituted in 18 μL DMSO (CellTrace CFSE Cell Proliferation Kit, Thermo Fisher Scientific #C34554) to create a 5 mM stock immediately prior to labeling. Cells were resuspended in 1 mL warm CCM and transferred into a new 15 mL Falcon tube lying horizontally. A drop containing 110 μL warm PBS was placed on a side of the tube, and 17.6 μL of 5 mM CFDA-SE was diluted into the drop. The tube was then quickly capped and turned upside right while being vortexed gently, yielding a final concentration of 80 μM CFDA-SE. Cells were incubated for 5 minutes at room temperature, quenched by adding 9 mL warm CCM, and washed twice with 10 mL warm CCM. When only naïve T cells were labeled with CFSE, they were combined with the CFSE-negative PBMC fraction devoid of naïve T cells after labeling to restore original cell proportions. All centrifuging steps for live cells were done for 5 minutes at 250 g, 37° C. CFSE and labeled cells were protected from light throughout the experiment. During protocol optimization, the above labeling protocol for 0.1-10×10^7 cells and CFSE concentrations in range of 0.2 μM to 320 μM was tested. Long-term cell viability and proliferation were assessed. Manufacturer's labeling protocol for CFSE concentrations 0.2 μM to 20 μM, as well as other CFSE suppliers (BIOLEGEND® #422701, San Diego, CA, USA) were also tested.
Samples were processed as previously known in the art. To stain cells for viability, cisplatin (SIGMA-ALDRICH® #P4394) was reconstituted to 100 mM in DMSO and incubated at 37° C. for 3 days to prepare a stock solution, which was then stored in aliquots at −20° C. Cell pellets were resuspended in 1 mL PBS containing 0.5 μM cisplatin, gently vortexed, incubated 5 minutes at room temperature, quenched with 3 mL CCM, pelleted, and resuspended in 1 mL CCM. […] All centrifuging steps for fixed cells were done for 5 minutes at 600×g, 4° C. Cell pellets were optionally stored at −80° C.
as §1

[4] = REP day 3, among CD45RA^High CD25^Low CFSE^+CD8^+T cells
[5] = REP day 3, among CD45RA^Low CD25^High CFSE^+CD8^+T cells

Structure (SMILES): CO[C@H]1C[C@@H]2CC[C@@H](C)[C@@](O)(O2)C(=O)C(=O)N2CCCC[C@H]2C(=O)O[C@H]([C@H](C)C[C@@H]2CC[C@@H](O)[C@H](OC)C2)CC(=O)[C@H](C)/C=C(\C)[C@@H](O)[C@@H](OC)C(=O)[C@H](C)C[C@H](C)/C=C/C=C/C=C/1C [Rapamycin, rapamycin]
- pRPS6+ (%) (first column, c2) ([1]; REP day 3): 99.49%
- pRPS6+ (%) (second column, c5) ([1]; REP day 3): 0.51%
- pRPS6+ (%) (first column, c2) ([1]; REP day 4): 99.15%
- pRPS6+ (%) (second column, c5) ([1]; REP day 4): 0.85%
- pRPS6+ (%) (first column, c2) ([1]; REP day 5): 99.28%
- pRPS6+ (%) (second column, c5) ([1]; REP day 5): 0.72%
- pRPS6+ (%) (first column, c2) ([1]; REP day 7): 99.44%
- pRPS6+ (%) (second column, c5) ([1]; REP day 7): 0.56%
- CD45RA^Low CD25^High (%) ([2]; REP day 3): 27.34%
- CD45RA^High CD25^Low (%) ([2]; REP day 3): 16.11%
- CD45RA^Low CD25^High (%) ([2]; REP day 4): 30.19%
- CD45RA^High CD25^Low (%) ([2]; REP day 4): 16.03%
- CD45RA^Low CD25^High (%) ([2]; REP day 5): 43.80%
- CD45RA^High CD25^Low (%) ([2]; REP day 5): 8.87%
- CD45RA^Low CD25^High (%) ([2]; REP day 7): 21.79%
- CD45RA^High CD25^Low (%) ([2]; REP day 7): 9.00%
- CD45RA High CD25 Low (%) ([2]; REP day 3): 16.11%
- CD45RA Low CD25 High (%) ([2]; REP day 3): 27.34%
- CD45RA High CD25 Low (%) ([2]; REP day 4): 16.03%
- CD45RA Low CD25 High (%) ([2]; REP day 4): 30.19%
- CD45RA High CD25 Low (%) ([2]; REP day 5): 8.87%
- CD45RA Low CD25 High (%) ([2]; REP day 5): 43.80%
- CD45RA High CD25 Low (%) ([2]; REP day 7): 9.00%
- CD45RA Low CD25 High (%) ([2]; REP day 7): 21.79%
- Apoptotic cells (% cPARP+ cells in CFSE+ CD8+ T cells) ([3]; REP day 3): 0.43%
- Apoptotic cells (% cPARP^+ cells in CFSE^+ CD8^+T cells) ([3]; REP day 3): 0.43%
- CFSE+ CD8+ T cells (%) ([3]; REP day 3): 2.14%
- Dead cells (1% cisplatin+ cells in CFSE+ CD8+ T cells) ([3]; REP day 3): 0.26%
- Dead cells (1% cisplatin^+ cells in CFSE^+ CD8^+ T cells) ([3]; REP day 3): 0.26%
- Total CFSE+ CD8+ T cells ([3]; REP day 3): 0.14
- Total CFSE^+ CD8^+ T cells ([3]; REP day 3): 0.14
- Total cells (×10^6) ([3]; REP day 3): 6.48 ×10^6
- Apoptotic Cell (%) [3, 4]: 0.53%
- Dead cells (%) [3, 4]: 0.00%
- Apoptotic Cells (%) [3, 5]: 0.31%
- Dead cells (%) [3, 5]: 0.63%
- CFSE^+ CD8^+ T cells (%)^* ([3]; REP day 3, live and non-apoptotic gates not applied): 2.14%
- Apoptotic cells (% cPARP+ cells in CFSE+ CD8+ T cells) ([3]; REP day 4): 0.85%
- Apoptotic cells (% cPARP^+ cells in CFSE^+ CD8^+T cells) ([3]; REP day 4): 0.85%
- CFSE+ CD8+ T cells (%) ([3]; REP day 4): 3.07%
- Dead cells (1% cisplatin+ cells in CFSE+ CD8+ T cells) ([3]; REP day 4): 0.38%
- Dead cells (1% cisplatin^+ cells in CFSE^+ CD8^+ T cells) ([3]; REP day 4): 0.38%
- Total CFSE+ CD8+ T cells ([3]; REP day 4): 0.31
- Total CFSE^+ CD8^+ T cells ([3]; REP day 4): 0.31
- Total cells (×10^6) ([3]; REP day 4): 9.96 ×10^6
- Apoptotic Cell (%) ([3]; REP day 4, among CD45RA^High CD25^Low CFSE^+CD8^+T cells): 0.59%
